According to US20120264735A1 (priority 2009, published 2012):

Target: T1, c-Met kinase (recombinant c-Met) (Homo sapiens, UniProt P08581)
T1 construct: 0.27 nM recombinant c-Met
Experiment: In vitro kinase assay I (homogeneous time-resolved fluorescence tyrosine kinase assay)
Format: biochemical
Outline: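 Biotinylated peptide (0.5 μM) phosphorylated by 0.2 nM recombinant c-Met with 50 μM MgATP, 60 min at room temperature, pH 7.4, 5% DMSO. EDTA stop; HTRF read with Eu-anti-phosphotyrosine antibody and streptavidin-APC. IC50 from 4-parameter logistic fit.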

T1 sequence (P08581 25-1390): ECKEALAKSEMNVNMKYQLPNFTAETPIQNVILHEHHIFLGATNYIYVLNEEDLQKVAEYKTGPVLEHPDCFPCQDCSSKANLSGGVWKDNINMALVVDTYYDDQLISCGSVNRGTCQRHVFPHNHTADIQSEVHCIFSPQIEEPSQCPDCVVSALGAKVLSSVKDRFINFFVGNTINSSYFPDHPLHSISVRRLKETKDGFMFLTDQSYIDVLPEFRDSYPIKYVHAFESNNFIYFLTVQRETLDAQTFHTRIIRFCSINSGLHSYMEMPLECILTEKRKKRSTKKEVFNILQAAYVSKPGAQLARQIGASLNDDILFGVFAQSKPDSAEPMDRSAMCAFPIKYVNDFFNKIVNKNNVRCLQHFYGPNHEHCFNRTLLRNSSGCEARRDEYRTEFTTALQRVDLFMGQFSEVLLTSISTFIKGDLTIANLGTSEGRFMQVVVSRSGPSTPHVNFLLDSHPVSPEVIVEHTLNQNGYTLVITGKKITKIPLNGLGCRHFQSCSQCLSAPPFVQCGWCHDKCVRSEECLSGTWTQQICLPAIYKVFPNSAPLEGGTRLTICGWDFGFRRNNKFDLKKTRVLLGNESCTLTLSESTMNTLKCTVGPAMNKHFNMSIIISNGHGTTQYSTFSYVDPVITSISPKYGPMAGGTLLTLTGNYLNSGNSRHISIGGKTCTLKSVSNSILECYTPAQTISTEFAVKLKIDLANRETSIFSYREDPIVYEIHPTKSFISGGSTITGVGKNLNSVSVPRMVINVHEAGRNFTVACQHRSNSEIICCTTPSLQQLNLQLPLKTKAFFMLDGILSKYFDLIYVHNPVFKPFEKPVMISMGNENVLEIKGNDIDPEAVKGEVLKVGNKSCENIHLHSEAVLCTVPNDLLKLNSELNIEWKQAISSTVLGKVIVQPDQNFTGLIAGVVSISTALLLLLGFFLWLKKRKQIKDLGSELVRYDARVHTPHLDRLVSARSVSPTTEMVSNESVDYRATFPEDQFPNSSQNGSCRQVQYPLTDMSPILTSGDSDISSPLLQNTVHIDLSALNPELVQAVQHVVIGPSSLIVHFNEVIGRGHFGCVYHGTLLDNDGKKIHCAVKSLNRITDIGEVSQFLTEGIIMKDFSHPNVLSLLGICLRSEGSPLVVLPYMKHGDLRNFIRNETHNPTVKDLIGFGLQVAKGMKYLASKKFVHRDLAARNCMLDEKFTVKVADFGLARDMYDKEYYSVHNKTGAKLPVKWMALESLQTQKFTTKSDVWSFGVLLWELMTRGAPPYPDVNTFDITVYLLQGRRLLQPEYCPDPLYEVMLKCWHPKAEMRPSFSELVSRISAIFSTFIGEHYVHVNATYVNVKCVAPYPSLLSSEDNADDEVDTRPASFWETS

IC50 [nM]	Structure (SMILES)
< 100	O=C(Nc1cccc(Cc2nn(-c3cc(F)cc(F)c3)ccc2=O)c1)OCCCN1CCOCC1 [Example 521, 3-morpholin-4-ylpropyl (3-{[1-(3,5-difluorophenyl)-4-oxo-1,4-dihydropyridazin-3-yl]methyl}phenyl)carbamate]
< 100	O=C(Nc1cccc(Cc2nn(-c3cc(F)cc(F)c3)ccc2=O)c1)OCCCN1CCS(=O)(=O)CC1 [Example 522, 3-(1,1-dioxidothio-morpholin-4-yl)propyl (3-{[1-(3,5-difluorophenyl)-4-oxo-1,4-dihydropyridazin-3-yl]methyl}phenyl)carbamate]
< 100	O=C(Nc1cccc(Cc2nn(-c3cc(F)cc(F)c3)ccc2=O)c1)OCCN1CCOCC1 [Example 523, 2-morpholin-4-ylethyl (3-{[1-(3,5-difluorophenyl)-4-oxo-1,4-dihydropyridazin-3-yl]methyl}phenyl)carbamate]
< 100	Cn1cc(-n2ccc(=O)c(Cc3cccc(NC(=O)OCCN4CCC(F)(F)C4)c3)n2)cn1 [Example 524, 2-(3,3-difluoropyrrolidin-1-yl)ethyl (3-{[1-(1-methyl-1H-pyrazol-4-yl)-4-oxo-1,4-dihydropyridazin-3-yl]methyl}phenyl)carbamate]
< 100	Cn1cc(-n2ccc(=O)c(Cc3cccc(NC(=O)OCC(F)(F)CN4CCOCC4)c3)n2)cn1 [Example 525, 2,2-difluoro-3-morpholin-4-ylpropyl (3-{[1-(1-methyl-1H-pyrazol-4-yl)-4-oxo-1,4-dihydropyridazin-3-yl]methyl}phenyl)carbamate]
< 100	Cn1cc(-n2ccc(=O)c(Cc3cccc(NC(=O)OCCC(C)(C)O)c3)n2)cn1 [Example 526, 3-hydroxy-3-methylbutyl (3-{[1-(1-methyl-1H-pyrazol-4-yl)-4-oxo-1,4-dihydropyridazin-3-yl]methyl}phenyl)carbamate]
< 100	O=C(Nc1cccc(Cc2nn(-c3ccc(F)c(F)c3)ccc2=O)c1)OCC1CCOCC1 [Example 527, tetrahydro-2H-pyran-4-ylmethyl (3-{[1-(3,4-difluorophenyl)-4-oxo-1,4-dihydropyridazin-3-yl]methyl}phenyl)carbamate]
< 100	O=C(Nc1cccc(Cc2nn(-c3ccc(F)c(F)c3)ccc2=O)c1)OCCN1CCS(=O)(=O)CC1 [Example 528, 2-(1,1-dioxidothio-morpholin-4-yl)ethyl-(3-{[1-(3,4-difluorophenyl)-4-oxo-1,4-dihydropyridazin-3-yl]methyl}phenyl)carbamate]
< 100	O=C1CN(CCOC(=O)Nc2cccc(Cc3nn(-c4ccc(F)c(F)c4)ccc3=O)c2)CCN1 [Example 529, 2-(3-oxopiperazin-1-yl)ethyl (3-{[1-(3,4-difluorophenyl)-4-oxo-1,4-dihydropyridazin-3-yl]methyl}phenyl)carbamate]
< 100	CN1CCN(CCOC(=O)Nc2cccc(Cc3nn(-c4cnn(C)c4)ccc3=O)c2)CC1 [Example 530, 2-(4-methylpiperazin-1-yl)ethyl (3-{[1-(1-methyl-1H-pyrazol-4-yl)-4-oxo-1,4-dihydropyridazin-3-yl]methyl}phenyl)carbamate]
< 100	Cn1cc(-n2ccc(=O)c(Cc3cccc(NC(=O)OCCN4CCOCC4)c3)n2)cn1 [Example 531]
< 100	Cn1cc(-n2ccc(=O)c(Cc3cccc(NC(=O)OCCN4CCCC4=O)c3)n2)cn1 [Example 533, 2-(2-oxopyrrolidin-1-yl)ethyl (3-{[1-(1-methyl-1H-pyrazol-4-yl)-4-oxo-1,4-dihydropyridazin-3-yl]methyl}phenyl)carbamate]
< 100	Cn1cc(-n2ccc(=O)c(Cc3cccc(NC(=O)OCCn4cncn4)c3)n2)cn1 [Example 534, 2-(1H-1,2,4-triazol-1-yl)ethyl (3-{[1-(1-methyl-1H-pyrazol-4-yl)-4-oxo-1,4-dihydropyridazin-3-yl]methyl}phenyl)carbamate]
< 100	Cn1cc(-n2ccc(=O)c(Cc3cccc(NC(=O)OCCN4CCOCC4=O)c3)n2)cn1 [Example 535, 2-(3-oxomorpholin-4-yl)ethyl (3-{[1-(1-methyl-1H-pyrazol-4-yl)-4-oxo-1,4-dihydropyridazin-3-yl]methyl}phenyl)carbamate]
< 100	CN1CCN(CCCOC(=O)Nc2cccc(Cc3nn(-c4cnn(C)c4)ccc3=O)c2)CC1 [Example 536, 3-(4-methylpiperazin-1-yl)propyl-(3-{[1-(1-methyl-1H-pyrazol-4-yl)-4-oxo-1,4-dihydropyridazin-3-yl]methyl}phenyl)carbamate]
< 100	Cn1cc(-n2ccc(=O)c(Cc3cccc(NC(=O)OCCCN4CCOCC4)c3)n2)cn1 [Example 537, 3-morpholin-4-ylpropyl (3-{[1-(1-methyl-1H-pyrazol-4-yl)-4-oxo-1,4-dihydropyridazin-3-yl]methyl}phenyl)carbamate]
< 100	Cn1cc(-n2ccc(=O)c(Cc3cccc(NC(=O)OCC4CCC4)c3)n2)cn1 [Example 538, cyclobutylmethyl (3-{[1-(1-methyl-1H-pyrazol-4-yl)-4-oxo-1,4-dihydropyridazin-3-yl]methyl}phenyl)carbamate]

IC50 [nM]	Structure (SMILES)
< 100	Cn1cc(-n2ccc(=O)c(Cc3cccc(NC(=O)OCC4CCCC4)c3)n2)cn1 [Example 539, cyclopentylmethyl (3-{[1-(1-methyl-1H-pyrazol-4-yl)-4-oxo-1,4-dihydropyridazin-3-yl]methyl}phenyl)carbamate]
< 100	Cn1cc(-n2ccc(=O)c(Cc3cccc(NC(=O)OCC4CCCCC4)c3)n2)cn1 [Example 540, cyclohexylmethyl (3-{[1-(1-methyl-1H-pyrazol-4-yl)-4-oxo-1,4-dihydropyridazin-3-yl]methyl}phenyl)carbamate]
< 100	Cn1cc(-n2ccc(=O)c(Cc3cccc(NC(=O)OCC4CCOCC4)c3)n2)cn1 [Example 541, tetrahydro-2H-pyran-4-ylmethyl (3-{[1-(1-methyl-1H-pyrazol-4-yl)-4-oxo-1,4-dihydropyridazin-3-yl]methyl}phenyl)carbamate]
< 100	Cn1cc(-n2ccc(=O)c(Cc3cccc(NC(=O)OCC4(C)COC4)c3)n2)cn1 [Example 543, (3-methyloxetan-3-yl)methyl (3-{[1-(1-methyl-1H-pyrazol-4-yl)-4-oxo-1,4-dihydropyridazin-3-yl]methyl}phenyl)carbamate]
< 100	Cn1cc(-n2ccc(=O)c(Cc3cccc(NC(=O)OCC(F)(F)F)c3)n2)cn1 [Example 544, 2,2,2-trifluoroethyl (3-{[1-(1-methyl-1H-pyrazol-4-yl)-4-oxo-1,4-dihydropyridazin-3-yl]methyl}phenyl)carbamate]
< 100	CN(C)C(=O)CCOC(=O)Nc1cccc(Cc2nn(-c3cnn(C)c3)ccc2=O)c1 [Example 545, 3-(dimethylamino)-3-oxopropyl (3-{[1-(1-methyl-1H-pyrazol-4-yl)-4-oxo-1,4-dihydropyridazin-3-yl]methyl}phenyl)carbamate]
< 100	CN(C)CCOC(=O)Nc1cccc(Cc2nn(-c3cc(F)c(F)c(F)c3)ccc2=O)c1 [Example 546, 2-(dimethylamino)ethyl (3-{[4-oxo-1-(3,4,5-trifluorophenyl)-1,4-dihydropyridazin-3-yl]methyl}phenyl)carbamate]
< 100	O=C(Nc1cccc(Cc2nn(-c3cc(F)c(F)c(F)c3)ccc2=O)c1)OCCn1ccnc1 [Example 547, 2-(1H-imidazol-1-yl)ethyl (3-{[4-oxo-1-(3,4,5-trifluorophenyl)-1,4-dihydropyridazin-3-yl]methyl}phenyl)carbamate]
< 100	O=C(Nc1cccc(Cc2nn(-c3cc(F)c(F)c(F)c3)ccc2=O)c1)OCCCn1cccc1 [Example 548, 3-(1H-pyrrol-1-yl)propyl (3-{[4-oxo-1-(3,4,5-trifluorophenyl)-1,4-dihydropyridazin-3-yl]methyl}phenyl)carbamate]
< 100	O=C(Nc1cccc(Cc2nn(-c3cc(F)c(F)c(F)c3)ccc2=O)c1)OCCN1CCCC1=O [Example 549, 2-(2-oxopyrrolidin-1-yl)ethyl (3-{[4-oxo-1-(3,4,5-trifluorophenyl)-1,4-dihydropyridazin-3-yl]methyl}phenyl)carbamate]
< 100	CN(CCOC(=O)Nc1cccc(Cc2nn(-c3cc(F)c(F)c(F)c3)ccc2=O)c1)c1ccccc1 [Example 550, 2-[methyl(phenyl)amino]ethyl (3-{[4-oxo-1-(3,4,5-trifluorophenyl)-1,4-dihydropyridazin-3-yl]methyl}phenyl)carbamate]
< 100	O=C(Nc1cccc(Cc2nn(-c3cc(F)c(F)c(F)c3)ccc2=O)c1)OCCCN1CCCC1=O [Example 551, 3-(2-oxopyrrolidin-1-yl)propyl (3-{[4-oxo-1-(3,4,5-trifluorophenyl)-1,4-dihydropyridazin-3-yl]methyl}phenyl)carbamate]
< 100	O=C(Nc1cccc(Cc2nn(-c3cc(F)c(F)c(F)c3)ccc2=O)c1)OCCn1cncn1 [Example 552, 2-(1H-1,2,4-triazol-1-yl)ethyl (3-{[4-oxo-1-(3,4,5-trifluorophenyl)-1,4-dihydropyridazin-3-yl]methyl}phenyl)carbamate]
< 100	CC1CCN(CCCOC(=O)Nc2cccc(Cc3nn(-c4cc(F)c(F)c(F)c4)ccc3=O)c2)CC1 [Example 553, 3-(4-methylpiperidin-1-yl)propyl (3-{[4-oxo-1-(3,4,5-trifluorophenyl)-1,4-dihydropyridazin-3-yl]methyl}phenyl)carbamate]
< 100	O=C(Nc1cccc(Cc2nn(-c3cc(F)c(F)c(F)c3)ccc2=O)c1)OCCCN1CCCC1 [Example 554, 3-pyrrolidin-1-ylpropyl (3-{[4-oxo-1-(3,4,5-trifluorophenyl)-1,4-dihydropyridazin-3-yl]methyl}phenyl)carbamate]
< 100	O=C(Nc1cccc(Cc2nn(-c3cc(F)c(F)c(F)c3)ccc2=O)c1)OCC1CCC1 [Example 555, cyclobutylmethyl (3-{[4-oxo-1-(3,4,5-trifluorophenyl)-1,4-dihydropyridazin-3-yl]methyl}phenyl)carbamate]
